Patent US9169254B2, “Spiroimidazolone derivative” (Chugai Seiyaku Kabushiki Kaisha, priority 2009, dated 2015)
Counter-ions that a name gives are not always drawn.

Molecular target: T1, human PTH1 receptor (Homo sapiens, UniProt Q03431)
T1 sequence (Q03431 27-593): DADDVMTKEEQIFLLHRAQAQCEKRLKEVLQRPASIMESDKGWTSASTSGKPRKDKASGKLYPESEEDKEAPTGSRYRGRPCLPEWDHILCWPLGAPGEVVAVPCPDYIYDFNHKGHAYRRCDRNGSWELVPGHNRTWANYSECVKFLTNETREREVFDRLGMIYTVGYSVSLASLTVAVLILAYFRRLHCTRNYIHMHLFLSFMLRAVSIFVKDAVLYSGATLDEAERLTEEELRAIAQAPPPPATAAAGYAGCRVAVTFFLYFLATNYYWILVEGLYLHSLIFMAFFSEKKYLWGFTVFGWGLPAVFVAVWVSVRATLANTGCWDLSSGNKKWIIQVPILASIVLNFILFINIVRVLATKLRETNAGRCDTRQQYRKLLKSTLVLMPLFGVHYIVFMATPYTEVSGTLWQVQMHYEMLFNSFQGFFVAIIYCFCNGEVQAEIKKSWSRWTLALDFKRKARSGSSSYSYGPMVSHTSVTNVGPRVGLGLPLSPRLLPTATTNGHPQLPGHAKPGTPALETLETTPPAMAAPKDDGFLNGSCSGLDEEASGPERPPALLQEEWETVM
Test: In vitro cAMP signal activity in HKRK-B7 cells (LLC-PK1 cells overexpressing the human PTH1 receptor)
Format: cell-based
Settings: HKRK-B7 cells; compound at 1×10^−3 M; cAMP produced as percentage of that produced by hPTH(1-34) at 100 nM

First: Cc1cc(C(=O)N2CCN(c3ccccn3)CC2)ccc1CCS(=O)(=O)N1CCC2(CC1)N=C(c1cccc(C(F)(F)F)c1)NC2=O [Compound 361, 8-{2-[2-methyl-4-(4-pyridin-2-yl-piperazine-1-carbonyl)-phenyl]-ethanesulfonyl}-2-(3-trifluoromethyl-phenyl)-1,3,8-triaza-spiro[4.5]dec-1-en-4-one]
Second: Cc1cc(C(=O)N2CCC(N)C2)ccc1CCS(=O)(=O)N1CCC2(CC1)N=C(c1cccc(C(F)(F)F)c1)NC2=O (stereo not drawn) [Compound 445, 8-{2-[4-(3-amino-pyrrolidine-1-carbonyl)-2-methyl-phenyl]-ethanesulfonyl}-2-(3-trifluoromethyl-phenyl)-1,3,8-triaza-spiro[4.5]dec-1-en-4-one hydrochloride]
The “cAMP production activity (%)” value of the first is lower: 82% for the first, 83% for the second.

First: Cc1cc(N(C)C(N)=O)cc(C)c1/C=C/[S@TB3](=O)(=O)N1CCC2(CC1)N=C(c1cccc(CCCCCC(F)(F)F)c1)NC2=O [Compound 1116, 1-[3,5-dimethyl-4-((E)-2-{4-oxo-2-[3-(6,6,6-trifluoro-hexyl)-phenyl]-1,3,8-triaza-spiro[4.5]dec-1-ene-8-sulfonyl}-vinyl)-phenyl]-1-methyl-urea]
Second: Cc1cc(N(C)C(N)=O)cc(C)c1CCS(=O)(=O)N1CCC2(CC1)N=C(c1cccc(OCCCC(F)(F)C(F)(F)F)c1)NC2=O [Compound 1135, 1-[3,5-Dimethyl-4-(2-{4-oxo-2-[3-(4,4,5,5,5-pentafluoro-pentyloxy)-phenyl]-1,3,8-triaza-spiro[4.5]dec-1-ene-8-sulfonyl}-ethyl)-phenyl]-1-methyl-urea]
The “cAMP production activity (%)” value of the first is higher: 106% for the first, 84% for the second.

Going from `Cc1cc(N2C(=O)N(C)C(C)(C)C2=O)cc(C)c1CCS(=O)(=O)N1CCC2(CC1)N=C(C1CCC(C)CC1)NC2=O` (stereo not drawn) [Compound 885, 3-(3,5-dimethyl-4-{2-[2-(4-methyl-cyclohexyl)-4-oxo-1,3,8-triaza-spiro[4.5]dec-1-ene-8-sulfonyl]-ethyl}-phenyl)-1,5,5-trimethyl-imidazolidine-2,4-dione] to `CC(=O)Nc1ccc(CCS(=O)(=O)N2CCC3(CC2)N=C([C@H]2CC[C@H](CCF)CC2)NC3=O)c(C)c1` [Compound 1061, N-[4-(2-{2-[4-(2-fluoro-ethyl)-cyclohexyl]-4-oxo-1,3,8-triaza-spiro[4.5]dec-1-ene-8-sulfonyl}-ethyl)-3-methyl-phenyl]-acetamide], the “cAMP production activity (%)” value falls from 58% to 55%.

Compared with `O=C(Nc1ccc(CCS(=O)(=O)N2CCC3(CC2)N=C(C2CCCCC2)NC3=O)c(C(F)(F)F)c1)C1CC1` [Compound 271, cyclopropanecarboxylic acid {4-[2-(2-cyclohexyl-4-oxo-1,3,8-triaza-spiro[4.5]dec-1-ene-8-sulfonyl)-ethyl]-3-trifluoromethyl-phenyl}-amide], `CC(=O)Nc1ccc(CCS(=O)(=O)N2CCC3(CC2)N=C(C2CCC(COC(C)C)CC2)NC3=O)c(C)c1` (stereo not drawn) [Compound 913, N-(4-{2-[2-(4-isopropoxymethyl-cyclohexyl)-4-oxo-1,3,8-triaza-spiro[4.5]dec-1-ene-8-sulfonyl]-ethyl}-3-methyl-phenyl)-acetamide] is higher in “cAMP production activity (%)” value: 57% for the first, 81% for the second.

Going from `Cc1cc(C(=O)N2CCC(O)CC2)cc(C)c1/C=C/S(=O)(=O)N1CCC2(CC1)N=C(c1cccc(OCCCC(F)(F)C(F)(F)F)c1)NC2=O` [Compound 1158, 8-{(E)-2-[4-(4-Hydroxy-piperidine-1-carbonyl)-2,6-dimethyl-phenyl]-ethenesulfonyl}-2-[3-(4,4,5,5,5-pentafluoro-pentyloxy)-phenyl]-1,3,8-triaza-spiro[4.5]dec-1-en-4-one] to `Cc1cc(C(F)(F)F)ccc1C1=NC2(CCN(S(=O)(=O)/C=C/c3c(C)cc(C(=O)N4CCC(O)(CF)CC4)cc3C)CC2)C(=O)N1` [Compound 1259, 8-{(E)-2-[4-(4-fluoromethyl-4-hydroxy-piperidine-1-carbonyl)-2,6-dimethyl-phenyl]-ethenesulfonyl}-2-(2-methyl-4-trifluoromethyl-phenyl)-1,3,8-triaza-spiro[4.5]dec-1-en-4-one], the “cAMP production activity (%)” value falls from 103% to 101%.

Compared with `CC(=O)N(CCO)c1ccc(/C=C/S(=O)(=O)N2CCC3(CC2)N=C(c2cccc(C(F)(F)F)c2F)NC3=O)c(C)c1` [Compound 259, N-(4-{(E)-2-[2-(2-Fluoro-3-trifluoromethyl-phenyl)-4-oxo-1,3,8-triaza-spiro[4.5]dec-1-ene-8-sulfonyl]-vinyl}-3-methyl-phenyl)-N-(2-hydroxy-ethyl)-acetamide], `CC(=O)N(CCOCCF)c1ccc(/C=C/S(=O)(=O)N2CCC3(CC2)N=C(C2CCC(CCC(F)(F)F)CC2)NC3=O)c(C)c1` (stereo not drawn) [Compound 545, N-[2-(2-fluoro-ethoxy)-ethyl]-N-[3-methyl-4-((E)-2-{4-oxo-2-[4-(3,3,3-trifluoro-propyl)-cyclohexyl]-1,3,8-triaza-spiro[4.5]dec-1-ene-8-sulfonyl}-vinyl)-phenyl]-acetamide] is higher in “cAMP production activity (%)” value: 67% for the first, 86% for the second.

Going from `Cc1cc(N(CC#N)C(N)=O)ccc1CCS(=O)(=O)N1CCC2(CC1)N=C(c1cccc(OC(F)(F)F)c1)NC2=O` [Compound 876, 1-cyanomethyl-1-(3-methyl-4-{2-[4-oxo-2-(3-trifluoromethoxy-phenyl)-1,3,8-triaza-spiro[4.5]dec-1-ene-8-sulfonyl]-ethyl}-phenyl)-urea] to `CNC(=O)c1ccc(C)c(CCS(=O)(=O)N2CCC3(CC2)N=C(c2cccc(OC(F)(F)F)c2)NC3=O)c1` [Compound 415, 4,N-dimethyl-3-{2-[4-oxo-2-(3-trifluoromethoxy-phenyl)-1,3,8-triaza-spiro[4.5]dec-1-ene-8-sulfonyl]-ethyl}-benzamide], the “cAMP production activity (%)” value rises from 22% to 56%.

Compared with `Cc1cc(N(C)C(N)=O)cc(C)c1CCS(=O)(=O)N1CCC2(CC1)N=C(CCCCCCCCCCCC(N)=O)NC2=O` [Compound 1174, 12-(8-{2-[2,6-dimethyl-4-(1-methyl-ureido)-phenyl]-ethanesulfonyl}-4-oxo-1,3,8-triaza-spiro[4.5]dec-1-en-2-yl)-dodecanoic acid amide], `CC(=O)N(C[C@H](O)CO)c1cc(C)c(/C=C/S(=O)(=O)N2CCC3(CC2)N=C(CCCCCCCCC(F)(F)F)NC3=O)c(C)c1` [Compound 707, N—((S)-2,3-Dihydroxy-propyl)-N-(3,5-dimethyl-4-{(E)-2-[4-oxo-2-(9,9,9-trifluoro-nonyl)-1,3,8-triaza-spiro[4.5]dec-1-ene-8-sulfonyl]-vinyl}-phenyl)-acetamide] is higher in “cAMP production activity (%)” value: 91% for the first, 124% for the second.

Going from `Cc1cc(NC[C@H](O)CO)ccc1CCS(=O)(=O)N1CCC2(CC1)N=C(c1ccc(OC(F)(F)F)cc1)NC2=O` [Compound 156, 8-{2-[4-((S)-2,3-Dihydroxy-propylamino)-2-methyl-phenyl]-ethanesulfonyl}-2-(4-trifluoromethoxy-phenyl)-1,3,8-triaza-spiro[4.5]dec-1-en-4-one] to `Cc1c(CCS(=O)(=O)N2CCC3(CC2)N=C(c2cccc(OC(F)(F)F)c2)NC3=O)cccc1C(=O)N(C)C` [Compound 409, 2,N,N-Trimethyl-3-{2-[4-oxo-2-(3-trifluoromethoxy-phenyl)-1,3,8-triaza-spiro[4.5]dec-1-ene-8-sulfonyl]-ethyl}-benzamide], the “cAMP production activity (%)” value falls from 64% to 55%.

Compared with `O=C1NC(C2CCCCC2)=NC12CCCN(S(=O)(=O)c1cccc(Cl)c1)C2` (stereo not drawn) [Compound 71, 7-(3-chloro-benzenesulfonyl)-2-cyclohexyl-1,3,7-triaza-spiro[4.5]dec-1-en-4-one], `CN1CCCc2c(/C=C/S(=O)(=O)N3CCC4(CC3)N=C(C3CCCCC3)NC4=O)cccc21` [Compound 638, 2-cyclohexyl-8-[(E)-2-(1-methyl-1,2,3,4-tetrahydro-quinolin-5-yl)-ethenesulfonyl]-1,3,8-triaza-spiro[4.5]dec-1-en-4-one] is higher in “cAMP production activity (%)” value: 3.7% for the first, 46% for the second.

First: CCCCCCCCCC1=NC2(CCN(S(=O)(=O)CCc3ccc(N4CCOCC4=O)cc3C)CC2)C(=O)N1 [Compound 657, 8-{2-[2-Methyl-4-(3-oxo-morpholin-4-yl)-phenyl]-ethanesulfonyl}-2-nonyl-1,3,8-triaza-spiro[4.5]dec-1-en-4-one]
Second: CCCC=C1CCC(C2=NC3(CCN(S(=O)(=O)CCc4ccc(NC(C)=O)cc4C)CC3)C(=O)N2)CC1 (stereo not drawn) [Compound 1079, N-(4-{2-[2-(4-Butylidene-cyclohexyl)-4-oxo-1,3,8-triaza-spiro[4.5]dec-1-ene-8-sulfonyl]-ethyl}-3-methyl-phenyl)-acetamide]
The “cAMP production activity (%)” value of the first is higher: 124% for the first, 91% for the second.

Going from `Cc1cc2ccc1CCS(=O)(=O)N1CCC3(CC1)N=C(NC3=O)c1cc(cc(C(F)(F)F)c1)OCCCCCCOCCN(C)C2=O` [Compound 1437] to `Cc1cc(N2C(=O)C(C)C[C@@H]2CO)cc(C)c1/C=C/S(=O)(=O)N1CCC2(CC1)N=C(c1cccc(OC(F)(F)F)c1)NC2=O` (stereo partly drawn) [Compound 713, 8-{(E)-2-[4-((R)-5-hydroxymethyl-3-methyl-2-oxo-pyrrolidin-1-yl)-2,6-dimethyl-phenyl]-ethenesulfonyl}-2-(3-trifluoromethoxy-phenyl)-1,3,8-triaza-spiro[4.5]dec-1-en-4-one], the “cAMP production activity (%)” value falls from 57% to 55%.
